Data from publication PMC4322365, “A Ligand-observed Mass Spectrometry Approach Integrated into the Fragment Based Lead Discovery Pipeline” (Scientific Reports, 2015).
Several values for one entry are separate records, joined by “and”; a condition that tells them apart may be missing. Equal entries are not always repeated. Where two headings read alike, the source gives them in different places.

Tests used:
Format in all cases: binding
[1] = biological target: T1, HCV RNA polymerase NS5B (Hepatitis C virus genotype 1b, UniProt P26663); assay: biochemical; settings: for Binding degree (fraction of fragment ligands over total fragment in incubation) / S/N in the validation assay: 12-hit mixture; for Binding degree (fraction of fragment ligands over total fragment in incubation): P/L 2:1, 1:1, 1:2, theoretical value for about 1 mM affinity; for S/N in the validation assay: two replicates separated by a slash, S/N > 10 positive, ND: not detected by MS analysis; for MS S/N: Figure 2B, S/N factors from two independent experiments, legend says validation assay; for LE (ligand efficiency): derived from Kd at P/L 1:1 and heavy atom count
T1 construct: NS5B with a C-terminal 10-His tag was expressed in E. coli; 10-His (C); made in house; host or cells: E. coli
Protocol: Binding degree of each fragment represented by the fraction of fragment ligands over the total amount of fragments during incubation reflects the relative order of binding strengths.
In order to determine the dissociation constant of each fragment ligand, we prepared calibration curves for the MS responses of ten fragments in a mixture (Figure S1) and measured the recovery rate of each fragment (Table S3), which were used to derive the actual concentrations of fragments bound to the target. Kd values were then calculated based on the measured concentrations of fragment ligands dissociated from the target (Table S3). […] Ligand efficiency (LE) values were then derived from Kd's as a measure to justify which fragments to further optimize and elaborate in the FBLD pipeline[46][47] (Figure 2A). […] SPR was then implemented for Kd determination for these fragment hits.
All fragments of the library were either purchased from Sigma or synthesized in our laboratory, and their structural diversity was summarized in Figure S4. The mixture was then filtered through an ultrafiltration membrane (50 KD MW cut-off) by centrifugation at 13000 g for 10 min at […]. The protein complexes bound with different fragments were washed twice with 10 mM ammonium acetate (pH 6.5) followed by centrifugation to remove the unbound fragments. The resulting solution of the complexes was transferred to a new centrifugal tube, and the ligands were dissociated from NS5B with 90% methanol in deionized water. The released ligands were then separated from the denatured protein by centrifugation at 13000 g for 10 min at 20°C. The supernatant containing the ligands was evaporated by a speed vacuum, reconstituted in 80% methanol, and analyzed by LC/MS. The protein-free control was prepared by using the binding buffer substitute for NS5B during incubation and it underwent the same process as the NS5B incubated sample. […] Each cocktail was then incubated with NS5B in the binding buffer at the same final concentration as in the primary screen. […] Ultrafiltration and complex dissociation were performed as described earlier to obtain fragment ligands. Samples were all prepared in duplicate and analyzed separately.

[2] = biological target: T2, NS5B (Hepatitis C virus genotype 1b, UniProt P26663); assay: SPR analysis (Biacore T200, immobilized NS5B); settings: for SPR Corr. response (RU): corrected response above 5 RU indicates positive binding; for SPR binding: threshold 5 RU
T2 construct: NS5B with a C-terminal 10-His tag was expressed in E. coli; 10-His (C); made in house; host or cells: E. coli
Protocol: In order to determine the dissociation constant of each fragment ligand, we prepared calibration curves for the MS responses of ten fragments in a mixture (Figure S1) and measured the recovery rate of each fragment (Table S3), which were used to derive the actual concentrations of fragments bound to the target. Kd values were then calculated based on the measured concentrations of fragment ligands dissociated from the target (Table S3). […] Ligand efficiency (LE) values were then derived from Kd's as a measure to justify which fragments to further optimize and elaborate in the FBLD pipeline[46][47] (Figure 2A). To examine the accuracy of Kd measurement using this new approach, we first attempted to utilize ITC for binding affinity assessment. […] SPR was then implemented for Kd determination for these fragment hits. […] However, using the single point measurement method, we were still able to estimate Kd's for these fragment-target interactions to be all within the millimolar range and rank the order of their binding affinity according to corrected responses (Figure 2B). […] The overall consistency of affinity ranking and estimation between the two independent assays implied our new approach enabled reliable assessment of binding affinity, especially valuable for characterizing low-affinity fragments not amenable to conventional biophysical approaches.
The SPR experiment was performed on a Biacore T200 optical biosensor (Biacore Life Sciences, GE Healthcare). Series S sensor chips CM5, NHS, EDC, ethanolamine HCl as well as sampling vials and caps were all obtained from Biacore. A solution of 1 × PBS with 5% DMSO was used as running buffer. NS5B protein at 50 μg/ml prepared in buffer of 10 mM sodium acetate (pH 5.5) was injected for immobilization which reached a level of 8000 RU. During each binding cycle, the fragment solution was injected for 1 min at a flow rate of 30 μL/min and dissociation was monitored for 300 s. Data were collected with the biosensor instrument thermo stated to 25°C. Raw data collected on an SPR biosensor were further processed to remove systematic artifacts stemming from nonspecific binding, signal drift, and bulk refractive index changes. Solvent correction and molecular weight adjustment were also applied in this study. All data processing and analysis was performed using the Biacore T200 Evaluation Software.

[3] = biological target: T2, NS5B; assay: X-ray crystallography of fragments soaked into NS5B crystals; settings: fragments soaked at 5 mM
Excerpt: Similar to other nucleotide polymerases, the domain distribution of apo HCV NS5B polymerase bears an anatomical resemblance to a right hand with subdomains representing the fingers, thumb and palm[50][51]. Structural and mechanistic studies of NS5B have indicated the existence of multiple allosteric binding domains including palm I, II and III pockets and thumb I and II sites targeted by reported inhibitors. To characterize the binding modes of the fragments studied, they were soaked in NS5B crystals to obtain the protein complex X-ray structures. We were able to resolve electron density corresponding to the soaked compound for five out of ten fragments (crystallographic data summary in Table S4).
Moreover, the interaction could be enhanced by a π-π conjugate between its benzene ring and Tyr448 (Figure 3A). Fragment 204 engages deep in the palm I pocket through its trifluoromethyl moiety forming a hydrogen bond with Ser368 and van der Waals interaction with Cys366. Additionally, the hydrophobic interaction with Met414 as well as the π-π conjugate to Tyr448 may also contribute to the relatively high binding affinity of this fragment (Figure 3B). Fragment 117 binds at the pocket mainly through van der Waals interactions with Met414, Cys366 and Ser368 (Figure 3C), whereas fragment 328 forms van der Waals interactions with Tyr415 and Cys366 (Figure 3D). We assume these weak interactions may result in the lower binding strengths observed for the two fragments. Fragment 162 binds NS5B in a small cavity of the thumb pocket, with its trifluoromethyl moiety extending a key hydrogen bond with Asn369 as well as making hydrophobic interactions with Ser371 and Glu481. To our knowledge, the three residues constitute a new active domain in the thumb region never disclosed before.
The final optimized NS5B crystals were grown by the hanging drop method using a well solution of 30 mg/mL protein, 20% (w/v) PEG-4000, 10% (v/v) glycerol, 5 mM DTT and 50 mM MES (pH 5.5) and diffracted to 2 Å. Fragments were soaked onto the NS5B crystals at a final concentration of 5 mM (2.38% DMSO) for 2–3 days. Diffraction data were collected at Rigaku MicorMax 007HF X-ray diffraction instrument with an R-AXIS HTC detector (Rigaku), and processed using CCP4[60]. The NS5B structure was solved by molecular replacement using NS5B (1QUV) as the search model. The fragment-bound NS5B complex structures were determined by rigid-body refinement using the apo NS5B structure as a starting model. Structure improvement proceeded with multiple rounds of manual model building in Coot, followed by refinement using CCP4. Fragment ligands were fitted into clear Fo-Fc electron density at the late stage of refinement. Images were rendered from PyMOL.

[4] = P/L = 1:1, protein 25 μM, estimated from MS-measured bound ligand concentration, read-out: Kd
[5] = P/L = 1:2, protein 25 μM, read-out: Kd
[6] = P/L = 2:1, protein 25 μM, read-out: Kd
[7] = Kd, P/L = 1:1, protein 25 μM, estimated from MS-measured bound ligand concentration

T2 sequence (P26663 2420-3010): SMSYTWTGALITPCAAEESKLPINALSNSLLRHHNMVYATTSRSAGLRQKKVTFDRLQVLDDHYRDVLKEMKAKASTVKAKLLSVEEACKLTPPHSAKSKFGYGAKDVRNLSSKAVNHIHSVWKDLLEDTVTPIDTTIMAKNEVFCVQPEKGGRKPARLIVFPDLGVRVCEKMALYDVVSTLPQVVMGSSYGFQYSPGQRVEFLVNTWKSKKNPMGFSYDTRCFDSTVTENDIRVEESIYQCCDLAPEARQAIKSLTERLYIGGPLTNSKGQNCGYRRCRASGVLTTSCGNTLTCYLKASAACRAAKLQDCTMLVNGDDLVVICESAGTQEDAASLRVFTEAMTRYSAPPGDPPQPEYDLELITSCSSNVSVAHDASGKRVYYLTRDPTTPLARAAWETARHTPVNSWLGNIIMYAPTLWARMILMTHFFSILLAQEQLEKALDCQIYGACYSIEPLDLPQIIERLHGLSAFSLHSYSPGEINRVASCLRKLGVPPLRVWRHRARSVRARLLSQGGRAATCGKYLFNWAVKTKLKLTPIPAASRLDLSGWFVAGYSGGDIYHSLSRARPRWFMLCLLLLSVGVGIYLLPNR
T1 sequence (P26663 2420-3010): as above

Structure (SMILES)	Binding degree (fraction of fragment ligands over total fragment in incubation) [1] [%]	S/N in the validation assay [1]	MS S/N [1]	Kd [1, 4] [mM]	Kd [1, 5] [mM]	Kd [1, 6] [mM]	LE (ligand efficiency) [1]	SPR Corr. response (RU) [2]	Kd [1, 7] [mM]	Kd ([1]; Kd, P/L = 1:2, protein 25 μM) [mM]	Kd ([1]; Kd, P/L = 2:1, protein 25 μM) [mM]	Binding site in crystal structure [3]	SPR binding [2]
Cn1c(=O)cc(O)c2ccccc21 [Fragment 130]	~2.4	378.0 and 376.0	48 and 49	1.19 ± 0.08	1.37 ± 0.04	0.95 ± 0.08	0.30	18.4 RU					
Cc1nc2ccccc2nc1C [Fragment 339]		172.0 and 223.0	66 and 62				0.22	12.2 RU	10.2 ± 0.45	8.95 ± 2.03	11.2 ± 1.45		
N#CCc1ccc(O)cc1 [Fragment 114]	~2.4	983.0 and 1198.0	103 and 91				0.40	55.6 RU	1.01 ± 0.06	1.2	1.13 ± 0.25	palm I allosteric domain	
O=C(O)c1ccc(C(F)(F)F)cc1 [Fragment 204]		21.0 and 23.0	22 and 20	4.04 ± 0.34	5.27	3.78 ± 0.35	0.25	< 5 RU and 3.2 RU				palm I allosteric domain	no binding
Oc1ccc(F)c(Cl)c1 [Fragment 85]		60.0 and 53.0	79 and 86	5.67 ± 0.34	6.8 ± 0.99	6.2 ± 0.51	0.33	30.9 RU					
Cc1cc(N)n(-c2ccccc2)n1 [Fragment 131]		56.0 and 46.0	23 and 19	13.4 ± 1.98	7.29 ± 0.19	12.7 ± 2.03	0.20	14.7 RU					
Nc1ccc(C(F)(F)F)cn1 [Fragment 162]		466.0 and 513.0	20 and 17	8.96 ± 2.49	9.53 ± 0.26	10.2 ± 1.3	0.25	7.6 RU				thumb region	
N#CC(c1ccccc1)N1CCOCC1 (stereo not drawn) [Fragment 328]		170.0 and 155.0	17 and 16				0.14		20	26.4 ± 7.92	23.5 ± 2.65	palm I allosteric domain	no binding
Cc1ccc2oc(=O)ccc2c1 [Fragment 117]		111.0 and 122.0	34 and 40	9.31 ± 0.23	9.18 ± 2.75	8.96 ± 0.84	0.22	24.6 RU				palm I allosteric domain	
Oc1ccc(SC(F)(F)F)cc1 [Fragment 237]		212.0 and 196.0	29 and 36	5.64 ± 0.06	6.45 ± 1.67	5.19 ± 0.46	0.25	10.0 RU					
